Data from patent US9073855B2, “BCL-2 selective apoptosis-inducing agents for the treatment of cancer and immune diseases” (AbbVie Inc., priority 2008, dated 2015).

What was measured:
[1] = target: GST-Bcl-2 (Homo sapiens, UniProt P10415); assay: TR-FRET binding assay, GST-Bcl-2 with F-Bak peptide probe; conditions: for Ki: TR-FRET Binding Affinity
Experimental: (§1) Tb-anti-GST antibody was purchased from Invitrogen (Catalog No. PV4216).
(§2) Representative compounds were serially diluted in dimethyl sulfoxide (DMSO) starting at 50 μM (2× starting concentration; 10% DMSO) and 10 μL were transferred into a 384-well plate.
(§3) The samples were then mixed on a shaker for 1 minute and incubated for an additional 3 hours at room temperature. For each assay, the probe/antibody and protein/probe/antibody were included on each assay plate as negative and positive controls, respectively. Fluorescence was measured on the ENVISION plate reader (Perkin Elmer) using a 340/35 nm excitation filter and 520/525 (F-Bak peptide) and 495/510 nm (Tb-labeled […] antibody) emission filters.
(§4) The inhibition constant (Ki) is the dissociation constant of an enzyme-inhibitor complex or a protein/small molecule complex, wherein the small molecule is inhibiting binding of one protein to another protein or peptide. […] Inhibition constants were determined using Wang's equation (Wang Z-X., An Exact Mathematical Expression For Describing Competitive Binding Of Two Different Ligands To A Protein Molecule. FEBS Lett. 1995, 360:111-4).

[2] = target: GST-Bcl-XL (Homo sapiens, UniProt Q07817); assay: TR-FRET binding assay, GST-Bcl-XL with F-Bak peptide probe; conditions: TR-FRET Binding Affinity
Experimental: as §1, §2, §3, §4

[3] = GST-Bcl-XL, F-Bak peptide probe

GST-Bcl-XL, sequence (Q07817 whole entry): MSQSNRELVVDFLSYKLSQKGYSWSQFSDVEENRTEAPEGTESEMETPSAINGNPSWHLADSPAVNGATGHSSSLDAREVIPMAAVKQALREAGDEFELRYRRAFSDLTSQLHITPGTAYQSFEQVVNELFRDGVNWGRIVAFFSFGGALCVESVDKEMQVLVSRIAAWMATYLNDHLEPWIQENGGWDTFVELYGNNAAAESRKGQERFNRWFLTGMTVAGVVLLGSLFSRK
GST-Bcl-2, sequence (P10415 whole entry): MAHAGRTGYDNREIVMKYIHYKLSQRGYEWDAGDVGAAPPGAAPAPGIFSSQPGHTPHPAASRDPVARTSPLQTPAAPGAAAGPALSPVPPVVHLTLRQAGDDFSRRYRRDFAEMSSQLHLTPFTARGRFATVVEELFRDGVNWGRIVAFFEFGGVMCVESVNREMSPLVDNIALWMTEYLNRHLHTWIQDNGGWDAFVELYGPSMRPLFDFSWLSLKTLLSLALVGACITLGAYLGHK

Structure (SMILES) | Ki [1] | Ki ([1]; GST-Bcl-2, F-Bak peptide probe) | Ki [2, 3] | also measured
CN(C)CC(=O)N1CCO[C@@H](CNc2ccc(S(=O)(=O)NC(=O)c3ccc(N4CCN(CC5=C(c6ccc(Cl)cc6)CC(C)(C)CC5)CC4)cc3Oc3cccc4[nH]cnc34)cc2[N+](=O)[O-])C1 [Example 438, 2-(1H-benzimidazol-4-yloxy)-4-(4-{[2-(4-chlorophenyl)-4,4-dimethylcyclohex-1-en-1-yl]methyl}piperazin-1-yl)-N-{[4-({[(2S)-4-(N,N-dimethylglycyl)morpholin-2-yl]methyl}amino)-3-nitrophenyl]sulfonyl}benzamide] | < 0.01 nM | – | – | Ki [2]: 0.345 nM
O=C(NS(=O)(=O)c1ccc(-n2ncc([N+](=O)[O-])n2)cc1)c1ccc(N2CCN(Cc3ccccc3-c3ccc(Cl)cc3)CC2)cc1Oc1ccccc1 [Example 31, 4-{4-[(4′-chloro-1,1′-biphenyl-2-yl)methyl]piperazin-1-yl}-N-{[4-(4-nitro-2H-1,2,3-triazol-2-yl)phenyl]sulfonyl}-2-phenoxybenzamide] | – | 36.6 nM | > 660 nM | –
CC1(C)CCC(CN2CCN(c3ccc(C(=O)NS(=O)(=O)c4cnc(OCC5(F)CCC(C#N)CC5)c(Cl)c4)c(Oc4cccc5[nH]ncc45)c3)CC2)=C(c2ccc(Cl)cc2)C1 (stereo not drawn) [Example 549, N-({5-chloro-6-[(cis-4-cyano-1-fluorocyclohexyl)methoxy]pyridin-3-yl}sulfonyl)-4-(4-{[2-(4-chlorophenyl)-4,4-dimethylcyclohex-1-en-1-yl]methyl}piperazin-1-yl)-2-(1H-indazol-4-yloxy)benzamide] | < 0.01 nM | – | – | –
O=C(NS(=O)(=O)c1ccc(NCC2CCOCC2)c(S(=O)(=O)C(F)(F)F)c1)c1ccc(N2CCN(Cc3cc(OCCCN4CCCCC4)ccc3-c3ccc(Cl)cc3)CC2)cc1Oc1ccccc1 [Example 118, 4-(4-{[4′-chloro-4-(3-piperidin-1-ylpropoxy)-1,1′-biphenyl-2-yl]methyl}piperazin-1-yl)-2-phenoxy-N-({4-[(tetrahydro-2H-pyran-4-ylmethyl)amino]-3-[(trifluoromethyl)sulfonyl]phenyl}sulfonyl)benzamide] | – | 0.769 nM | > 660 nM | –
CC1(C)CCC(CN2CCN(c3ccc(C(=O)NS(=O)(=O)c4ccc(NCC5CCOC5)c([N+](=O)[O-])c4)c(Oc4cccc5[nH]cnc45)c3)CC2)=C(c2ccc(Cl)cc2)C1 (stereo not shown) [Example 439, 2-(1H-benzimidazol-4-yloxy)-4-(4-{[2-(4-chlorophenyl)-4,4-dimethylcyclohex-1-en-1-yl]methyl}piperazin-1-yl)-N-({3-nitro-4-[(tetrahydrofuran-3-ylmethyl)amino]phenyl}sulfonyl)benzamide] | < 0.01 nM | – | – | Ki [2]: 15 nM
O=C(NS(=O)(=O)c1ccc(N2C(=O)C3CCC3C2=O)cc1)c1ccc(N2CCN(Cc3ccccc3-c3ccc(Cl)cc3)CC2)cc1Oc1ccccc1 (stereo not shown) [Example 28, 4-{4-[(4′-chloro-1,1′-biphenyl-2-yl)methyl]piperazin-1-yl}-N-{[4-(2,4-dioxo-3-azabicyclo[3.2.0]hept-3-yl)phenyl]sulfonyl}-2-phenoxybenzamide] | – | 33.7 nM | > 660 nM | –
O=C(NS(=O)(=O)c1ccc(NCC2CCOCC2)c([N+](=O)[O-])c1)c1ccc(N2CCN(Cc3ccccc3-c3ccc(Cl)cc3)CC2)cc1Oc1cccnc1 [Example 79, 4-{4-[(4′-chloro-1,1′-biphenyl-2-yl)methyl]piperazin-1-yl}-N-({3-nitro-4-[(tetrahydro-2H-pyran-4-ylmethyl)amino]phenyl}sulfonyl)-2-(pyridin-3-yloxy)benzamide] | – | 2.05 nM | 97.2 nM | –
CN(C)CCCNc1ccc(S(=O)(=O)NC(=O)c2ccc(N3CCN(CC4=C(c5ccc(Cl)cc5)CC(C)(C)CC4)CC3)cc2Oc2ccc3[nH]ccc3c2)cc1S(=O)(=O)C(F)(F)Cl [Example 67, N-[(3-{[chloro(difluoro)methyl]sulfonyl}-4-{[3-(dimethylamino)propyl]amino}phenyl)sulfonyl]-4-(4-{[2-(4-chlorophenyl)-4,4-dimethylcyclohex-1-en-1-yl]methyl}piperazin-1-yl)-2-(1H-indol-5-yloxy)benzamide] | – | 289 nM | > 660 nM | –
CC(C)N(C)CCCNc1ccc(S(=O)(=O)NC(=O)c2ccc(N3CCN(Cc4ccccc4-c4ccc(Cl)cc4)CC3)cc2Oc2ccccc2)cc1[N+](=O)[O-] [Example 93, 4-{4-[(4′-chloro-1,1′-biphenyl-2-yl)methyl]piperazin-1-yl}-N-{[4-({3-[isopropyl(methyl)amino]propyl}amino)-3-nitrophenyl]sulfonyl}-2-phenoxybenzamide] | – | 0.231 nM | 13.9 nM | –
CC1(C)CCC(CN2CCN(c3ccc(C(=O)NS(=O)(=O)c4ccc(OCC5CCC(C)(O)CC5)c([N+](=O)[O-])c4)c(Oc4cccc5[nH]ncc45)c3)CC2)=C(c2ccc(Cl)cc2)C1 (stereo not drawn) [Example 532, 4-(4-{[2-(4-chlorophenyl)-4,4-dimethylcyclohex-1-en-1-yl]methyl}piperazin-1-yl)-N-({4-[(cis-4-hydroxy-4-methylcyclohexyl)methoxy]-3-nitrophenyl}sulfonyl)-2-(1H-indazol-4-yloxy)benzamide] | < 0.01 nM | – | – | Binding selectivity ratio (Bcl-XL Ki/Bcl-2 Ki) ([1]; TR-FRET, Bcl-XL Ki divided by Bcl-2 Ki): >981.2; Ki [2]: 9.81 nM
CC1(C)CCC(CN2CCN(c3ccc(C(=O)NS(=O)(=O)c4cnc(OCC5CCC(C)(O)CC5)c(C#N)c4)c(Oc4cccc5[nH]ncc45)c3)CC2)=C(c2ccc(Cl)cc2)C1 (stereo not drawn) [Example 544, 4-(4-{[2-(4-chlorophenyl)-4,4-dimethylcyclohex-1-en-1-yl]methyl}piperazin-1-yl)-N-({5-cyano-6-[(trans-4-hydroxy-4-methylcyclohexyl)methoxy]pyridin-3-yl}sulfonyl)-2-(1H-indazol-4-yloxy)benzamide] | < 0.01 nM | – | – | –
CC1(C)CCC(CN2CCN(c3ccc(C(=O)NS(=O)(=O)c4cnc(NCC5CCC(C)(O)CC5)c([N+](=O)[O-])c4)c(Oc4cccc5[nH]ncc45)c3)CC2)=C(c2ccc(Cl)cc2)C1 (stereo not drawn) [Example 555, 4-(4-{[2-(4-chlorophenyl)-4,4-dimethylcyclohex-1-en-1-yl]methyl}piperazin-1-yl)-N-[(6-{[(cis-4-hydroxy-4-methylcyclohexyl)methyl]amino}-5-nitropyridin-3-yl)sulfonyl]-2-(H-indazol-4-yloxy)benzamide] | < 0.01 nM | – | – | –
COCC1(C)CCC(c2ccc(Cl)cc2)=C(CN2CCN(c3ccc(C(=O)NS(=O)(=O)c4cnc(OCC5CCC(C)(O)CC5)c(Cl)c4)c(Oc4cccc5[nH]ncc45)c3)CC2)C1 (stereo not drawn) [Example 539, N-({5-chloro-6-[(trans-4-hydroxy-4-methylcyclohexyl)methoxy]pyridin-3-yl}sulfonyl)-4-(4-{[2-(4-chlorophenyl)-5-(methoxymethyl)-5-methylcyclohex-1-en-1-yl]methyl}piperazin-1-yl)-2-(1H-indazol-4-yloxy)benzamide] | < 0.01 nM | – | – | –
COC1(C)CCC(c2ccc(Cl)cc2)=C(CN2CCN(c3ccc(C(=O)NS(=O)(=O)c4cnc(OCC5CCC(C)(O)CC5)c(Cl)c4)c(Oc4cccc5[nH]ncc45)c3)CC2)C1 (stereo not drawn) [Example 553, N-({5-chloro-6-[(trans-4-hydroxy-4-methylcyclohexyl)methoxy]pyridin-3-yl}sulfonyl)-4-(4-{[2-(4-chlorophenyl)-5-methoxy-5-methylcyclohex-1-en-1-yl]methyl}piperazin-1-yl)-2-(1H-indazol-4-yloxy)benzamide] | < 0.01 nM | – | – | –
CC1(C)CCC(CN2CCN(c3ccc(C(=O)NS(=O)(=O)c4ccc(NC[C@H]5CN(C6COC6)CCO5)c([N+](=O)[O-])c4)c(Oc4cccc5[nH]ncc45)c3)CC2)=C(c2ccc(Cl)cc2)C1 [Example 540, 4-(4-{[2-(4-chlorophenyl)-4,4-dimethylcyclohex-1-en-1-yl]methyl}piperazin-1-yl)-2-(1H-indazol-4-yloxy)-N-{[3-nitro-4-({[(2S)-4-(oxetan-3-yl)morpholin-2-yl]methyl}amino)phenyl]sulfonyl}benzamide] | < 0.01 nM | – | – | –
CN1[C@@H]2CC[C@H]1CC(Nc1ccc(S(=O)(=O)NC(=O)c3ccc(N4CCN(CC5=C(c6ccc(Cl)cc6)CC(C)(C)CC5)CC4)cc3Oc3ccc4[nH]ccc4c3)cc1[N+](=O)[O-])C2 (stereo partly drawn) [Example 467, 4-(4-{[2-(4-chlorophenyl)-4,4-dimethylcyclohex-1-en-1-yl]methyl}piperazin-1-yl)-2-(1H-indol-5-yloxy)-N-[(4-{[(1R,5S)-8-methyl-8-azabicyclo[3.2.1]oct-3-yl]amino}-3-nitrophenyl)sulfonyl]benzamide] | 0.08 nM | – | – | –
O=C(NS(=O)(=O)c1ccc(NCCCN2CCOCC2)c([N+](=O)[O-])c1)c1ccc(N2CCN(Cc3ccccc3-c3ccc(Cl)cc3)CC2)cc1Oc1ccc2[nH]ccc2c1 [Example 59, 4-{4-[(4′-chloro-1,1′-biphenyl-2-yl)methyl]piperazin-1-yl}-2-(1H-indol-5-yloxy)-N-({4-[(3-morpholin-4-ylpropyl)amino]-3-nitrophenyl}sulfonyl)benzamide] | – | – | 1260 nM | –
CC1(C)CCC(CN2CCN(c3ccc(C(=O)NS(=O)(=O)c4ccc(NC[C@H]5CN(C6COC6)CCO5)c([N+](=O)[O-])c4)c(Oc4cccc5[nH]cnc45)c3)CC2)=C(c2ccc(Cl)cc2)C1 [Example 541, 2-(1H-benzimidazol-4-yloxy)-4-(4-{[2-(4-chlorophenyl)-4,4-dimethylcyclohex-1-en-1-yl]methyl}piperazin-1-yl)-N-{[3-nitro-4-({[(2S)-4-(oxetan-3-yl)morpholin-2-yl]methyl}amino)phenyl]sulfonyl}benzamide] | 0.167 nM | – | – | –
